Here are results for six compounds from US20090069547A1, “STABILIZATION OF MAMMALIAN MEMBRANE PROTEINS BY SHORT SURFACTANT PEPTIDES” (Massachusetts Institute of Technology, priority 2007, published 2009).

Like-named read-outs stand apart in the source and are kept apart here.

The conditions of series [1]: non-peptide surfactant, medium not stated; cited from earlier work.
For series [2], the system named is photosystem I (PSI) protein complex. Particulars: cited from earlier work; for Stabilization of the PSI complex (≈735-nm fluorescence maximum, words): surfactant added before drying the sample, emission at 77 K.
In series [3] the target is T1, GPCR bovine rhodopsin (Bos taurus, UniProt P02699).
T1 construct: Bovine retinae rod outer segment membranes were prepared (40, 41) and urea-stripped (42); tissue J. A. Lawson (Lincoln, Nebr.); host or cells: bovine retinae, rod outer segments
T1 sequence (P02699 whole entry): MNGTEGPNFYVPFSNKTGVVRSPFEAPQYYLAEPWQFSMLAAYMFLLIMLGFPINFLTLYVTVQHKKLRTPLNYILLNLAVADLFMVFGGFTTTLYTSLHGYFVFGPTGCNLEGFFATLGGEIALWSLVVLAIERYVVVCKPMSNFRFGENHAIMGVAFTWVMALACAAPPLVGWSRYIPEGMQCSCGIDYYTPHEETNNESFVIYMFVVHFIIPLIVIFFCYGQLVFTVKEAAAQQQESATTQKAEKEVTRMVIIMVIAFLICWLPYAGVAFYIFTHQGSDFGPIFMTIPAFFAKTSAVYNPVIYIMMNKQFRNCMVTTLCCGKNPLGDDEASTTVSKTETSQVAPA
The series is described as follows: Thermal stability of rhodopsin in peptide solution in the presence of surfactant (decay of A500). The series is classed as biochemical. Here is the method: Solubilization of Rhodopsin in Different Surfactants. Bovine retinae rod outer segment membranes were prepared (40, 41) and urea-stripped (42). Samples of the membranes containing 1.4 nmol of rhodopsin were solubilized in 0.5 ml of PBS containing 0.5 mM phenylmethylsulfonyl fluoride with 1% DM or 2% (/vol) OG. The suspensions were centrifuged (100,000×g for 15 min), and the supernatants were kept in the dark at 4° C.
Thermal Stability Study of Rhodopsin in Peptide Solution in the Presence of the Surfactant. Rhodopsin solubilized (32-34) in PBS containing 2% (vol/vol) OG was added to the same volume of PBS containing 0, […], 5.0, or 7.5 mM A6D, 1.8% PEG, or 5.4 mM RAD8. In another experiment, rhodopsin solubilized in PBS containing 1% (19.8 mM) DM was added to the same volume of PBS containing 5.0 mM A6D or 0, 5.0, or 19.8 mM DM. A decrease in A500 was recorded every 5 min up to 110 min at 40° C. for the samples containing OG and at 40-55° C. for those containing DM (FIGS. 2 and 3). UV-visible absorption spectroscopy was performed with a Lambda 6 spectrophotometer (Perkin-Elmer, Wellesley, Mass.) equipped with a temperature regulated cuvette holder with a slit width of 2 nm, 480 nm/min scan speed, and a response time of 1 second. The A500 remaining at different time points was expressed as the percentage of absorbance present at the start of the experiment. The half-life of rhodopsin in each solution was calculated by using a single exponential curve fit. The plot obtained from the percentage of absorbance at different time points was fitted to a single exponential curve with two parameters (Eq. 1).
The plot obtained from the A500 values at different time points was directly fitted to a single exponential curve with three parameters (Eq. 2) when the plot from the percentage of absorbance could not be fitted to Eq. 1.
The half-life (t1/2) was calculated using Eq. 3.

Series [4] in a line: Critical aggregation concentration (CAC) of surfactants, dynamic light scattering. The series is classed as physicochemical. Here is the method:
In a further embodiment, the surfactant peptide is added to the mammalian membrane protein at a concentration that is based on the CAC of the surfactant peptide. The CAC of surfactants can be determined experimentally using known dynamic light scattering methods. A minimal amount of sample can be used in this method. Each CAC determination takes a few hours, therefore it is possible to determine the CAC for a large number of peptide detergents in a few weeks. It is known that the lower the CAC, the more hydrophobic the detergents and the stronger the aggregation in water. The CAC for several peptide surfactants in water is shown below in Table 1.
Similar to common surfactants, these peptide surfactants have defined critical aggregation concentrations (CACs) in the sub-millimolar to millimolar range, depending on the hydrophobicity of the tails and the ionic concentration. For example, in water, A6D has a CAC of ≈1.6 mM, and A6K has a CAC of 1.5 mM; however, in phosphate-based saline (PBS) (10 mM sodium phosphate/150 mM NaCl, pH 7.4), A6D has a CAC of 0.25 mM and A6K has a CAC of ≈0.23 mM. This difference is due the charge screening effect in accordance with the Derjaguin-Landau-Verwey-Overbeck (DVLO) theory, which postulates that a critical coagulation concentration of counterions is required to allow assembly and that this concentration will be inversely proportional to the valence of the counterion raised to the sixth power (28). The peptide surfactant supramolecular structure is similar to that of phospholipids; namely, the formation of a polar interface sequesters the hydrophobic tails from water.

A further series deals with phycobilisomes. Kind of series: Stabilization of phycobilisomes, room temperature fluorescent spectroscopy (666 nm). The class given is biochemical, Porphridium Cruentum. Particulars: phycobilisomes after buffer change to 0.4M PBS, excitation 540 nm, room temperature. Here is the method:
Methods: Native phycobilisomes were isolated from Porphridium Cruentum, purified by Martek Biosciences and received in stabilizing buffer (0.75 M PBS, pH ˜7). Peptergents (ac-A6D and ac-A6K—NH2) were used as supplied (CPC Scientific) without further purification. Briefly, phycobilisomes (1 ng/mL) were mixed with peptergent-0.75M PBS solutions (0, 1, 2, 4 and 8 critical aggregation concentrations (CAC)). Phycobilisome-peptide solutions were dialyzed (3400 MWCO) against PBS solutions of various molarity (0.6-0.01M) for 18 h, in the dark. Room temperature fluorescent spectroscopy of these solutions was conducted using an excitation wavelength of 540 nm and emitted fluorescence (550-700 nm) were collected. UV-Vis spectra were obtained to confirm solution concentrations for all acquired fluorescent data.

Series [5] deals with T1, GPCR bovine rhodopsin. The series is described as follows: Thermal stability of rhodopsin in peptide solution in the absence of OG (decay of A500). The class given is biochemical. Particulars: control samples containing only OG, without A6D. Here is the method:
Thermal Stability of Rhodopsin in Peptide Solution in the Absence of OG. Rhodopsin solubilized in PBS containing 2% (vol/vol) OG was added to the same volume of PBS containing 2.5 mM A6D. […] Then, 0.5 ml of the mixture was poured into the tube. The tube was covered with 10 kDa of cutoff membrane and dialyzed against 4.5 ml of PBS containing 1.25 mM A6D for 40 h in the dark at 4° C. A resultant sample decrease in A500 was recorded every 5 min for 120 min at 40° C. A decrease in A500 of the predialysis mixture containing 1% OG and 1.25 mM A6D was also monitored as a control (FIG. 4A).

Series [6] deals with T2, delipidated bovine rhodopsin (Bos taurus, UniProt P02699).
T2 construct: Bovine retinae rod outer segment membranes were prepared (40, 41) and urea-stripped (42); tissue J. A. Lawson (Lincoln, Nebr.); host or cells: bovine retinae, rod outer segments
T2 sequence (P02699 whole entry): as above
The series is described as follows: Thermal stability of delipidated rhodopsin in the absence of phospholipids (decay of A500). The series is classed as biochemical. On the procedure: Removal of Phospholipids from Rhodopsin. Samples of the membranes containing 4.7 nmol of rhodopsin were solubilized in 1,000 ul of PBS containing 2% (vol/vol) OG. The suspension was mixed with 250 ul (settled beads, concentration of 50%) of rhodopsin-1D4 Sepharose and rotated for 3 h. The 1D4 Sepharose beads were then packed into a minicolumn (7-mm inner diameter) and washed with PBS containing 1% OG by using 500 bed volumes (total of 62.5 ml). The rhodopsin was then eluted with 1.5 ml of PBS containing 1% OG and the C-terminal nanopeptide.
Thermal Stability Study of Rhodopsin in Peptide Solution in the Absence of Phospholipids. The delipidated rhodopsin solution was added to the same volume of 1% OG in PBS containing 0, 3.75, or 7.5 mM A6D, or 1.8% PEG (FIG. 4B). In another experiment, the delipidated rhodopsin solutions were poured into tubes. Each tube was covered with 10 kDa of cutoff membrane and dialyzed against 4.5 ml of PBS or PBS containing 1.25 mM A6D or 1% OG (FIG. 4C). For all samples, a decrease in A500 was recorded every 5 min, up to 120 min at 40° C.

Series [7] has as its target T3, glycerol 3-phosphate dehydrogenase (Escherichia coli, UniProt P13035).
T3 sequence (P13035 1-501): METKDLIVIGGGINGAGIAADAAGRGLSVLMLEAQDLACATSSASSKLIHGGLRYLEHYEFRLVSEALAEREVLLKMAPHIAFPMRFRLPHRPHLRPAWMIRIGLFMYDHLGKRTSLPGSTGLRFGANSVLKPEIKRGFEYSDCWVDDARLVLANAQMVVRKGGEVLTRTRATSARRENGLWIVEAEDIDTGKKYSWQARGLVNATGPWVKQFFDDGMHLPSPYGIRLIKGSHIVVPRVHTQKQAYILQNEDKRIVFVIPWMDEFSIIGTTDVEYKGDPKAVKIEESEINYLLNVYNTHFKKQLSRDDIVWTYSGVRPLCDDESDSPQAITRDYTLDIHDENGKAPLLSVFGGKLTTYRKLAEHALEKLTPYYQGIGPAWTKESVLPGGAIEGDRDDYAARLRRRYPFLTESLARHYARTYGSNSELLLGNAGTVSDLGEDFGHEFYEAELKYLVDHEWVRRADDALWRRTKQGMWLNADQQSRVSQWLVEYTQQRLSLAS
Particulars: in solution, assayed through protein gel electrophoresis; cited from earlier work.

Turning to `CCCCCCCCCCCCO[C@@H]1O[C@H](CO)[C@@H](O[C@H]2O[C@H](CO)[C@@H](O)[C@H](O)[C@H]2O)[C@H](O)[C@H]1O` [DM, n-dodecyl-B-D-maltoside], the CAC entry in series [1] was “≈ 0.15 mM”. For the same compound, the “Stabilization of the PSI complex (≈735-nm fluorescence maximum, words)” value (“Stabilization of the PSI complex” for short) in series [2] is recorded as “did not stabilize”. The Half-life of rhodopsin at GPCR bovine rhodopsin [3] (12.3 mM DM, 50° C.) was 96 min; on GPCR bovine rhodopsin [3] (rhodopsin/phospholipid, 13.3 mM DM (89×CAC)), “≈ 93 min”; on GPCR bovine rhodopsin [3] (rhodopsin/phospholipids, 9.8 mM DM, 50° C.) it was 102 min and ≈ 102 min; at GPCR bovine rhodopsin [3] (rhodopsin/phospholipids, 19.6 mM DM, 50° C.) it was 96 min and ≈ 93 min.
For VVVVVVDD [V6D2], the CAC in series [4] (in water) stood at 1.1 mM.
Consider AAAAAAK [A6K], for which, in series [2] (room temperature, in the presence of the peptide surfactant), the “Time the PSI complex is stable in a dried form” value was “at least 3 weeks”. For the same compound, the “Stabilization of the PSI complex” value in series [2] is recorded as “significantly stabilized the PSI complex”. Moreover, the CAC entry in series [4] (in phosphate-based saline (PBS) (10 mM sodium phosphate/150 mM NaCl, pH 7.4)) is “≈ 0.23 mM”; in series [4] (in water), approximately 1.5 mM. Moreover, the “666 nm fluorescence intensity” value in the series on phycobilisomes was 0.7 ×10^5 cps.
Regarding `CCCCCCCCO[C@@H]1O[C@H](CO)[C@@H](O)[C@H](O)[C@H]1O` [OG, octyl-D-glucoside], in series [1], the CAC entry is given as “≈ 5 mM”. Besides, in series [2], the “Stabilization of the PSI complex” value is “did not stabilize”. For the same compound, the Half-life of rhodopsin result is “≈ 101 min” on GPCR bovine rhodopsin [5] (40° C.); “≈ 5 min” at GPCR bovine rhodopsin [5] (50° C.); 27 min in series [6] (delipidated rhodopsin dialyzed against 1% OG (control), 40° C.); 23 min in series [6] (delipidated rhodopsin, 1% OG, 40° C. (A6D concentration series)); 71 min and ≈ 71 min at GPCR bovine rhodopsin [3] (rhodopsin/phospholipids in 1% OG (PBS), 40° C.). Also, the “Stabilization effect on delipidated rhodopsin” value in series [6] (OG added to delipidated rhodopsin, 40° C.) was “did not have a significant stabilization effect”.
On to “Ac-n-RADARADA-c-NH2 (Ac-RADARADA-NH2) [RAD8, octapeptide similar in size to A6D without significant surfactant properties]”, for which the Half-life of rhodopsin with GPCR bovine rhodopsin [3] (rhodopsin/phospholipid, 2.8 mM RAD8/1% OG, 40° C.) is 99 min and ≈ 99 min.
In the case of VVVVVVD [V6D], in series [2], the “Stabilization of the PSI complex” value is reported as “also stabilized the complex, but to a lesser extent”. Besides, the “Solubilized membrane protein function” value in series [7] is on record as “retaining its functional enzymatic activities”. The compound further had a CAC in series [4] (in water) of approximately 0.7 mM.
